Converted amounts (≈) assume the structure as drawn. Where two headings read alike, the source gives them in different places.
Assay: Solubility test in water and FaSSIF
Format: physicochemical
Details: 37° C., up to 24 hours

Structure (SMILES)	Solubility (FaSSIF (pH 6.5)) [mg/mL]	Solubility (Water) [mg/mL]	Solubility (thermodynamic from solid, FaSSIF (pH 6.5), read-out: Solubility) [mg/mL]	Solubility (thermodynamic from solid, Water, read-out: Solubility) [mg/mL]
CC(C)(O)[C@@H]1CC[C@@](C)([C@H]2[C@@H](O)C[C@@]3(C)[C@@H]4C[C@H](OC(=O)[C@@H](N)Cc5c[nH]cn5)[C@H]5C(C)(C)C(F)(F)CC[C@@]56C[C@@]46CC[C@]23C)O1.O=S(=O)(O)O [Compound 2-22, (2aR,3R,4S,5aS,5bS,7S,7aR,11aR,12aS)-9,9-difluoro-4-hydroxy-3-((2S,5S)-5-(2-hydroxypropan-2-yl)-2-methyltetrahydrofuran-2-yl)-2a,5a,8,8-tetramethyltetradecahydro-1H,12H-cyclopenta[a]cyclopropa[e]phenanthren-7-yl-L-histidinate Sulfate]	1.25	0.7		
CC(C)(O)[C@@H]1CC[C@@](C)([C@H]2[C@@H](O)C[C@@]3(C)[C@@H]4C[C@H](OC(=O)[C@@H](N)CCCNC(=N)N)[C@H]5C(C)(C)C(F)(F)CC[C@@]56C[C@@]46CC[C@]23C)O1.Cl.Cl [Compound 2-23, 1-((S)-4-ammonio-5-(((2aR,3R,4S,5aS,5bS,7S,7aR,11aR,12aS)-9,9-difluoro-4-hydroxy-3-((2S,5S)-5-(2-hydroxypropan-2-yl)-2-methyltetrahydrofuran-2-yl)-2a,5a,8,8-tetramethyltetradecahydro-1H,12H-cyclopenta[a]cyclopropa[e]phenanthren-7-yl)oxy)-5-oxopentyl)guanidinium Chloride]	6.6	2.3		
CC(C)(O)[C@@H]1CC[C@@](C)([C@H]2[C@@H](O)C[C@@]3(C)[C@@H]4C[C@H](OC(=O)[C@@H](N)CC(=O)O)[C@H]5C(C)(C)C(F)(F)CC[C@@]56C[C@@]46CC[C@]23C)O1 [Compound 2-24, (S)-3-carboxy-1-(((2aR,3R,4S,5aS,5bS,7S,7aR,11aR,12aS)-9,9-difluoro-4-hydroxy-3-((2S,5S)-5-(2-hydroxypropan-2-yl)-2-methyltetrahydrofuran-2-yl)-2a,5a,8,8-tetramethyltetradecahydro-1H,12H-cyclopenta[a]cyclopropa[e]phenanthren-7-yl)oxy)-1-oxopropan-2-aminium 2,2,2-trifluoroacetate]			5.45 (≈ 8.71 mM)	1.5 (≈ 2.4 mM)
CC(C)(O)[C@@H]1CC[C@@](C)([C@H]2[C@@H](O)C[C@@]3(C)[C@@H]4C[C@H](OC(=O)[C@@H](N)CS)[C@H]5C(C)(C)C(F)(F)CC[C@@]56C[C@@]46CC[C@]23C)O1.Cl [Compound 2-25, (R)-1-(((2aR,3R,4S,5aS,5bS,7S,7aR,11aR,12aS)-9,9-difluoro-4-hydroxy-3-((2S,5S)-5-(2-hydroxypropan-2-yl)-2-methyltetrahydrofuran-2-yl)-2a,5a,8,8-tetramethyltetradecahydro-1H,12H-cyclopenta[a]cyclopropa[e]phenanthren-7-yl)oxy)-3-mercapto-1-oxopropan-2-aminium Chloride]	3.35	1.02		
CC(C)(O)[C@@H]1CC[C@@](C)([C@H]2[C@@H](O)C[C@@]3(C)[C@@H]4C[C@H](OC(=O)[C@@H](N)CCCCN)[C@H]5C(C)(C)C(F)(F)CC[C@@]56C[C@@]46CC[C@]23C)O1.Cl.Cl [Compound 2-26, (S)-6-(((2aR,3R,4S,5aS,5bS,7S,7aR,11aR,12aS)-9,9-difluoro-4-hydroxy-3-((2S,5S)-5-(2-hydroxypropan-2-yl)-2-methyltetrahydrofuran-2-yl)-2a,5a,8,8-tetramethyltetradecahydro-1H,12H-cyclopenta[a]cyclopropa[e]phenanthren-7-yl)oxy)-6-oxohexane-1,5-diaminium Chloride]	6.6	2.1		
Br.CC(C)(O)C1CCC(C)(C2C(O)CC3(C)C4CC(OC(=O)CNC(=O)C(N)CS)C5C(C)(C)C(F)(F)CCC56CC46CCC23C)O1 [Compound 2-32, (R)-1-((2-(((2aR,3R,4S,5aS,5bS,7S,7aR,11aR,12aS)-9,9-difluoro-4-hydroxy-3-((2S,5S)-5-(2-hydroxypropan-2-yl)-2-methyltetrahydrofuran-2-yl)-2a,5a,8,8-tetramethyltetradecahydro-1H,12H-cyclopenta[a]cyclopropa[e]phenanthren-7-yl)oxy)-2-oxoethyl)amino)-3-mercapto-1-oxopropan-2-aminium bromide]	4.96			
Br.CN(CC(=O)O[C@H]1C[C@@H]2[C@]3(CC[C@]4(C)[C@@H]([C@]5(C)CC[C@@H](C(C)(C)O)O5)[C@@H](O)C[C@@]24C)C[C@@]32CCC(F)(F)C(C)(C)[C@H]12)C(=O)[C@H](N)CC(=O)O [Compound 2-33, (R)-3-carboxy-1-((2-(((2aR,3R,4S,5aS,5bS,7S,7aR,11aR,12aS)-9,9-difluoro-4-hydroxy-3-((2S,5S)-5-(2-hydroxypropan-2-yl)-2-methyltetrahydrofuran-2-yl)-2a,5a,8,8-tetramethyltetradecahydro-1H,12H-cyclopenta[a]cyclopropa[e]phenanthren-7-yl)oxy)-2-oxoethyl)(methyl)amino)-1-oxopropan-2-aminium bromide]	6.8	2.1		
CC(NC(=O)C(N)CC(N)=O)C(=O)OC1CC2C3(C)CC(O)C(C4(C)CCC(C(C)(C)O)O4)C3(C)CCC23CC32CCC(F)(F)C(C)(C)C12.Cl [Compound 2-34, (S)-4-amino-1-(((S)-1-(((2aR,3R,4S,5aS,5bS,7S,7aR,11aR,12aS)-9,9-difluoro-4-hydroxy-3-((2S,5S)-5-(2-hydroxypropan-2-yl)-2-methyltetrahydrofuran-2-yl)-2a,5a,8,8-tetramethyltetradecahydro-1H,12H-cyclopenta[a]cyclopropa[e]phenanthren-7-yl)oxy)-1-oxopropan-2-yl)amino)-1,4-di oxobutan-2-aminium chloride]	3.2	1.18		
C[C@@H](N)C(=O)N[C@H](C)C(=O)O[C@H]1C[C@@H]2[C@]3(CC[C@]4(C)[C@@H]([C@]5(C)CC[C@@H](C(C)(C)O)O5)[C@@H](O)C[C@@]24C)C[C@@]32CCC(F)(F)C(C)(C)[C@H]12.I [Compound 2-35, (R)-1-(((R)-1-(((2aR,3R,4S,5aS,5bS,7S,7aR,11aR,12aS)-9,9-difluoro-4-hydroxy-3-((2 S,5S)-5-(2-hydroxypropan-2-yl)-2-methyltetrahydrofuran-2-yl)-2a,5a,8,8-tetramethyltetradecahydro-1H,12H-cyclopenta[a]cyclopropa[e]phenanthren-7-yl)oxy)-1-oxopropan-2-yl)amino)-1-oxopropan-2-aminium iodide]	3.14	1.35		
CC(C)(O)C1CCC(C)(C2C(O)CC3(C)C4CC(OP(=O)([O-])O)C5C(C)(C)C(F)(F)CCC56CC46CCC23C)O1.[Na+] [Compound 3-1, Monosodium Mono((2aR,3R,4S,5aS,5bS,7S,7aR,11aR,12aS)-9,9-difluoro-4-hydroxy-3-((2S,5S)-5-(2-hydroxypropan-2-yl)-2-methyltetrahydrofuran-2-yl)-2a,5a,8,8-tetramethyltetradecahydro-1H,12H-cyclopenta[a]cyclopropa[e]phenanthren-7-yl phosphate)]	15.8	11.5		
